Test [1] relates to adult male Sprague-Dawley rats. As to the kind of experiment: Sleep/wake parameters, repeated measures. The note with it: first 6 hours post-dosing, n=8. Format: in vivo, rat. On the procedure:
Using a counter-balanced, repeated measures design, three doses of Compound 1 (1-10 mg/kg, p.o.) were tested for their effects on sleep/wake parameters in adult male Sprague-Dawley rats (n=8). The results were compared with the effects on caffeine (10 mg/kg).
Methods. Eight (n=8) adult male Sprague Dawley rats were used in this study. Each rat received Compound 1 at 3 doses (1, 3 and 10 mg/kg), vehicle (purified H2O-negative control) and caffeine (10 mg/kg—positive control). […] Sleep parameters (non-rapid eye movement sleep, NR; rapid eye movement sleep, REM) were recorded and the first 6 hours post-dosing records were analyzed.

The test system of test [2] is adult male Sprague Dawley rats. In words: Progressive ratio (PROG)/Chow feeding choice task. The class given is in vivo, rat. The note with it: for standard chow intake vs VEH / lever pressing vs VEH: 30-minute session; for chow intake vs VEH, high responders / lever pressing vs VEH, high responders: high responder group (n=15); for lever presses, low responders (chow-intake analysis, FIG. 15) / lever pressing vs VEH, low responders: low responder group (n=16); for lever presses, low responders (chow-intake analysis, FIG. 15): Dunnett's test. On the procedure:
The PROG/Chow feeding choice procedure was used as a test designed to evaluate the effort a rat is willing to make to eat a palatable food by pressing a lever instead of eating freely available standard food.
Methods. Thirty-one (n=31) adult male Sprague Dawley rats were used in this study. The animals were restricted to 85% of their free-feeding weight, with modest growth allowed throughout the study period. Animals were assessed using operant conditioning chambers. Animals were first introduced to the high carbohydrate pellets (“palatable food”) and trained to lever press using a continuous reinforcement schedule with a fixed ration of one (FR1=one active lever press trigger the delivery of the palatable food) for one week. After this, the rats were trained on the progressive ratio (progressively more lever pressures were needed to trigger the delivery of the palatable food) schedule alone for nine weeks at which point chow (“standard food”) was introduced (=PROG/Chow feeding choice procedure), and animals trained for another 5 weeks to acquire a steady baseline. Each session lasted 30 minutes and rats ran in the operant chambers once a day, five days a week (Monday-Friday). Vehicle (VEH), or Compound 1 doses of 5.0, 10.0, and 20.0 mg/kg were administered via oral gavage once a week (Thursday or Friday) after the training period. Treatment conditions were selected randomly. Lever presses and chow consumption (including spillage) were recorded after each operant session.
Statistical analyses. Repeated measures analysis of variance test (ANOVA) and planned comparisons were used to assess the data overall. Factorial ANOVA was used to assess group x treatment interaction. If significant interactions were found, planned comparisons (using the overall error term) were used to assess the groups individually. Dunnett's tests were also used to analyze differences between drug treatments and VEH. A p value of <0.05 was considered statistically significant for all analyses.

Where [3] appears, read: 10.0 mg/kg oral gavage, n=31, p<0.001.
Setting [4] is: 20.0 mg/kg oral gavage, n=31, p<0.001.

In the case of `CCC[C@]1(C(=O)c2ccc(Cl)c(Cl)c2)CCNC1` [Compound 1, (3,4-dichloro-phenyl)-((S)-3-propyl-pyrrolidin-3-yl)-methanone], the REM sleep result was “reduced REM sleep, but to a lesser extent” in test [1] (3 mg/kg p.o.) and “complete suppression of REM sleep” in test [1] (10 mg/kg p.o.). The values for the wake result in test [1] (3 mg/kg p.o.) and in test [1] (10 mg/kg p.o.) were “significantly increased wake” and “wake-promoting effects”, respectively. Also, the “standard chow intake vs VEH” value in test [2] (5.0 mg/kg oral gavage, n=31, p<0.001) was “significant decreases”; in test [2] (setting [3]), “significant decreases”; in test [2] (setting [4]), “significant decreases”. The “lever pressing vs VEH” value in test [2] (5.0 mg/kg oral gavage, n=31, p=n.s.) is given as “No significant difference”; in test [2] (setting [3]), “significant decreases in lever pressing”; in test [2] (setting [4]), “significant decreases in lever pressing”. In test [2] (5.0-20.0 mg/kg oral gavage), the “overall conclusion on appetite” value is recorded as “appetite suppressant effects”. Besides, the “chow intake vs VEH, high responders” value in test [2] (5.0 mg/kg, p<0.010) was “significant decreases in chow intake”; in test [2] (10.0 mg/kg, p<0.001) it was “significant decreases in chow intake”; in test [2] (20.0 mg/kg, p<0.001), “significant decreases in chow intake”. The “lever pressing vs VEH, high responders” value in test [2] (5.0 mg/kg, p=n.s.) is given as “no significant difference”; in test [2] (10.0 mg/kg, p<0.001), “significant decreases in lever pressing”; in test [2] (20.0 mg/kg, p<0.001), “significant decreases in lever pressing”. In addition, the “lever presses, low responders (chow-intake analysis, FIG. 15)” value is “significant decreases in lever presses” in test [2] (5.0 mg/kg, p<0.001); “significant decreases in lever presses” in test [2] (10.0 mg/kg, p<0.001); “significant decreases in lever presses” in test [2] (20.0 mg/kg, p<0.001). The “lever pressing vs VEH, low responders” value is listed as “no significant differences” in test [2] (5.0 mg/kg, p=n.s.); “no significant differences” in test [2] (10.0 mg/kg, p=n.s.); “no significant differences” in test [2] (20.0 mg/kg, p=n.s.).

The record behind these values is patent US20250213526A1, “TRIPLE UPTAKE INHIBITOR FOR THE TREATMENT OF ATYPICAL DEPRESSION” (priority 2022, published 2025).
